Measured values published in patent US11365201B2, “Chlorotonil derivatives” (HELMHOLTZ-ZENTRUM FÜR INFEKTIONSFORSCHUNG GMBH, priority 2017, dated 2022).
In brackets after ≈: the same amount, converted by molar mass. Where two headings read alike, the source gives them in different places.

Legend:
Assay type in all cases: cell-based
E. coli TolC (+PMBN) = assay: Antimicrobial assay, MIC by microbroth dilution with PMBN; conditions: 16 h, 3 μg/mL polymyxin B nonapeptide (PMBN) added
Procedure: (§1) Bacterial strains used in susceptibility assays (minimum inhibitory concentrations, MIC) were either part of our internal strain collection or were purchased form the German Collection of Microorganisms and Cell Cultures (DSMZ). All compounds were prepared as DMSO stocks and MIC values were determined in standard microbroth dilution assays. Overnight cultures of bacteria were diluted in cation-adjusted Muller-Hinton broth (BBL™, BD) and were adjusted to approximately 10^5 cfu/mL. For the E. coli culture, 3 μg/mL of polymyxin B nonapeptide (PMBN) was added to increase permeability of the outer membrane as chlorotonils were previously shown to not penetrate into Gram-negative cells. Bacteria were grown in the presence of the derivatives in serial dilution for 16 h at their optimal growth temperature. MIC values were determined according to CLSI guidelines (antibiotic concentration at which no visible bacterial growth is observed).

[1] = tested on: P. falciparum 3D7 (sensitive strain); assay: Antiplasmodial in vitro drug sensitivity assay (HRP2-ELISA); conditions: P. falciparum 3D7 (sensitive strain), read-out: IC50 against P. falciparum 3D7
Procedure: (§2) Two laboratory strains of P. falciparum, the chloroquine sensitive 3D7 and the multi-resistant Dd2 were kept in continuous culture as previously described (Trager and Jensen 1976). In brief, parasites were kept in complete culture medium (RPMI 1640, 25 mM HEPES, 2 mM L-glutamine, 50 μg/ml gentamicin and 0.5% w/v AlbuMAX) at 37° C., 5% CO2 and 5% oxygen at 5% hematocrit with daily change of medium. Synchronization was performed with sorbitol twice a week (Lambros and Vanderberg 1979).
(§3) In Vitro Drug Sensitivity Assay
(§4) All compounds were dissolved in DMSO at stock dilutions between 25 and 100 mM; the reference drug chloroquine diphosphate (MW: 515.86) was diluted in distilled water and DMSO, respectively. […] Antiplasmodial activity of the different compounds was tested in a drug sensitivity assay against the two laboratory strains using the histidine-rich protein 2 (HRP2) assay as described previously (Noedl 2005). In brief: 96 well plates were pre-coated with the different compounds in a threefold dilution before ring stage parasites were added in complete culture medium at a hematocrit of 1.5% and a parasitemia of 0.05% in a total volume of 225 μl per well. After three days of incubation plates were frozen until analyzed by HRP2-ELISA. All compounds were evaluated in duplicate in at least two independent experiments.

[2] = tested on: P. falciparum Dd2 (resistant strain); assay: as above; conditions: P. falciparum Dd2 (resistant strain), read-out: IC50 against P. falciparum Dd2
Procedure: as §2, §3, §4

S. aureus Newman = assay: Antimicrobial assay, MIC by microbroth dilution; conditions: 16 h, cation-adjusted Muller-Hinton broth; for MIC: Staphylococcus aureus, NEWMAN
Procedure: as §1, with “For the E. coli culture, 3 μg/mL of polymyxin B nonapeptide (PMBN) was added to increase permeability of the outer membrane as chlorotonils were previously shown to not penetrate into Gram-negative cells.” left out

B. subtilis DSM-10 = assay: Antimicrobial assay, MIC by microbroth dilution; conditions: 16 h, cation-adjusted Muller-Hinton broth; for MIC: Bacillus subtilis, DSM10
Procedure: as §1, with “For the E. coli culture, 3 μg/mL of polymyxin B nonapeptide (PMBN) was added to increase permeability of the outer membrane as chlorotonils were previously shown to not penetrate into Gram-negative cells.” left out

C. glutamicum DSM-20300 = assay: Antimicrobial assay, MIC by microbroth dilution; conditions: 16 h, cation-adjusted Muller-Hinton broth; for MIC: Corynebacterium glutamicum, DSM20300
Procedure: as §1, with “For the E. coli culture, 3 μg/mL of polymyxin B nonapeptide (PMBN) was added to increase permeability of the outer membrane as chlorotonils were previously shown to not penetrate into Gram-negative cells.” left out

[3] = tested on: L-929 (murine fibroblasts); assay: Cytotoxicity assay (MTT, 5 d); conditions: Mus musculus, L929, 120 h
Procedure: Cytotoxicity Assay The murine fibroblast cell line L-929 was obtained from the German Collection of Microorganisms and Cell Cultures (DSMZ) and maintained under conditions recommended by the depositor. Cells were seeded at 6×10^3 cells per well of sterile 96-well plates in 180 μL complete medium and treated with the compounds in serial dilution after 2 h of equilibration. After 5 d, viability was assessed by the MTT method. After 1.5 h incubation with 0.5 mg/mL MTT reagent, cells were washed with PBS and 100 μL of 2-propanol/10 N HCl (250:1) was added. The absorbance at 570 nm was determined on a microplate reader and cell viability was expressed as percentage relative to the respective solvent control. Half-inhibitory concentrations (IC50) were determined by sigmoidal curve fitting.

Gram-positive bacteria = assay: Antimicrobial assay, MIC against a range of Gram-positive bacteria (Table 5)
Procedure: as §1, with “For the E. coli culture, 3 μg/mL of polymyxin B nonapeptide (PMBN) was added to increase permeability of the outer membrane as chlorotonils were previously shown to not penetrate into Gram-negative cells.” left out

SMILES | MIC E. coli TolC (+PMBN) (E. coli TolC (+PMBN)) [µg/mL] | IC50 ([1]; Plasmodium falciparum) [µM] | IC50 ([2]; Plasmodium falciparum) [µM] | MIC (S. aureus Newman) [µg/mL] | MIC (B. subtilis DSM-10) [µg/mL] | MIC (C. glutamicum DSM-20300) [µg/mL] | IC50 [3] [nM] | also measured
C[C@@H]1C(=O)O[C@@H](C)/C=C/C=C\[C@@H](C)[C@@H]2C=C[C@@H]3C[C@@](C)(Cl)[C@H](O)[C@@H](C)[C@H]3[C@@H]2C(=O)C(Cl)(Cl)C1=O [ChA-Epo1-Cl] | 3.2 | > 2.1 | > 2.1 | 3.2 (≈ 6.02 µM) | 3.2 (≈ 6.02 µM) | > 3.2 |  | 
CCO[C@]1(C)C[C@H]2C=C[C@@H]3[C@@H](C(=O)C(Cl)(Cl)C(=O)[C@H](C)C(=O)O[C@@H](C)/C=C/C=C\[C@H]3C)[C@@H]2[C@H](C)[C@H]1O [ChA-Epo1-OEt] | 1.6 |  |  | > 1.6 | > 6.4 | > 6.4 |  | 
CO[C@]1(C)C[C@H]2C=C[C@@H]3[C@@H](C(=O)C(Cl)(Cl)C(=O)[C@H](C)C(=O)O[C@@H](C)/C=C/C=C\[C@H]3C)[C@@H]2[C@H](C)[C@H]1O [ChA-Epo1-OMe] | 0.8 to 1.6 |  |  | 1.6 (≈ 3.03 µM) | 6.4 (≈ 12.1 µM) | > 6.4 |  | 
C[C@@H]1C(=O)O[C@@H](C)/C=C/C=C\[C@@H](C)[C@@H]2C=C[C@]3(C)C[C@]4(C)O[C@@H]4[C@@H](C)[C@H]3[C@@H]2C(=O)C(Cl)(Cl)C1=O [ChA-Epo1] | >3.2 | 0.0965 | 0.229 | 3.2 (≈ 6.28 µM) | 3.2 (≈ 6.28 µM) | > 3.2 | 10300 | 
C[C@@H]1C(=O)O[C@@H](C)/C=C/C=C\[C@@H](C)[C@@H]2C=C[C@@H]3C[C@@](C)(O)[C@H](Br)[C@@H](C)[C@H]3[C@@H]2C(=O)C(Cl)(Cl)C1=O [ChA-Epo2-Br] | 0.2 | 0.0251 | 0.0644 | 0.05 (≈ 0.0868 µM) | 0.05 (≈ 0.0868 µM) | 0.1 (≈ 0.174 µM) | 1100 | 
C[C@@H]1C(=O)O[C@@H](C)/C=C/C=C\[C@@H](C)[C@@H]2C=C[C@@H]3C[C@@](C)(O)[C@H](F)[C@@H](C)[C@H]3[C@@H]2C(=O)C(Cl)(Cl)C1=O [ChA-Epo2-F] | 0.8 | 0.136 | 0.329 | 0.2 (≈ 0.388 µM) | 0.2 (≈ 0.388 µM) | 0.4 to 0.8 (≈ 0.776 to 1.55 µM) |  | 
C[C@@H]1C(=O)O[C@@H](C)/C=C/C=C\[C@@H](C)[C@@H]2C=C[C@@H]3C[C@@](C)(O)[C@H](OCc4ccccc4)[C@@H](C)[C@H]3[C@@H]2C(=O)C(Cl)(Cl)C1=O [ChA-Epo2-OBn] | >3.2 |  |  | 0.4 (≈ 0.663 µM) | 0.4 (≈ 0.663 µM) | 3.2 (≈ 5.3 µM) |  | 
C[C@@H]1C(=O)O[C@@H](C)/C=C/C=C\[C@@H](C)[C@@H]2C=C[C@@H]3C[C@@](C)(O)[C@H](OCCCCO)[C@@H](C)[C@H]3[C@@H]2C(=O)C(Cl)(Cl)C1=O [ChA-Epo2-OBuOH] | 1.6 |  |  | > 3.2 | > 3.2 | 3.2 (≈ 5.46 µM) |  | 
CCCCO[C@@H]1[C@@H](C)[C@H]2[C@@H]3C(=O)C(Cl)(Cl)C(=O)[C@H](C)C(=O)O[C@@H](C)/C=C/C=C\[C@@H](C)[C@@H]3C=C[C@@H]2C[C@@]1(C)O [ChA-Epo2-OBu] | >3.2 |  |  | 1.6 (≈ 2.81 µM) | 0.8 (≈ 1.4 µM) | > 3.2 | 49400 | IC50 ([1]; Plasmodium falciparum, μM): > 11 µM; IC50 ([2]; Plasmodium falciparum, μM): > 11 µM
CCO[C@@H]1[C@@H](C)[C@H]2[C@@H]3C(=O)C(Cl)(Cl)C(=O)[C@H](C)C(=O)O[C@@H](C)/C=C/C=C\[C@@H](C)[C@@H]3C=C[C@@H]2C[C@@]1(C)O [ChA-Epo2-OEt] | >3.2 |  |  |  | > 3.2 | > 3.2 | > 100000 | IC50 ([1]; Plasmodium falciparum, μM): > 11 µM; IC50 ([2]; Plasmodium falciparum, μM): > 11 µM
C[C@@H]1C(=O)O[C@@H](C)/C=C/C=C\[C@@H](C)[C@@H]2C=C[C@@H]3C[C@@](C)(O)[C@H](O)[C@@H](C)[C@H]3[C@@H]2C(=O)C(Cl)(Cl)C1=O [ChA-Epo2-OH] | >6.4 | > 2.17 | > 2.17 |  | > 6.4 | > 6.4 |  | 
CO[C@@H]1[C@@H](C)[C@H]2[C@@H]3C(=O)C(Cl)(Cl)C(=O)[C@H](C)C(=O)O[C@@H](C)/C=C/C=C\[C@@H](C)[C@@H]3C=C[C@@H]2C[C@@]1(C)O [ChA-Epo2-OMe] | 3.2 |  |  |  | > 3.2 | > 3.2 | > 100000 | IC50 ([1]; Plasmodium falciparum, μM): > 11 µM; IC50 ([2]; Plasmodium falciparum, μM): > 11 µM
C[C@@H]1C(=O)O[C@@H](C)/C=C/C=C\[C@@H](C)[C@@H]2C=C[C@@H]3C[C@@](C)(O)[C@H](OCC(O)CO)[C@@H](C)[C@H]3[C@@H]2C(=O)C(Cl)(Cl)C1=O (stereo partly shown) [ChA-Epo2-glycerol] | >3.2 | > 1.9 | > 1.9 | 4 (≈ 6.81 µM) | > 3.2 | > 3.2 |  | 
C[C@H]1[C@H]2[C@@H]3C(=O)/C(Cl)=C(\O)[C@H](C)C(=O)O[C@@H](C)/C=C/C=C\[C@@H](C)[C@@H]3C=C[C@@H]2C[C@@]2(C)O[C@@H]12 [ChB1-Epo] |  |  |  |  |  |  |  | MIC (Gram-positive bacteria; Enterococcus faecalis, E. faecalis 20478, read-out: MIC): 0.8 µg/mL (≈ 1.74 µM); MIC (Gram-positive bacteria; Enterococcus faecalis, E. faecalis 29212, read-out: MIC): 0.8 µg/mL (≈ 1.74 µM); MIC (Gram-positive bacteria; Enterococcus faecium, E. faecium 20477, read-out: MIC): 0.2 µg/mL (≈ 0.434 µM); MIC (Gram-positive bacteria; Enterococcus faecium, VRE, E. faecium 17050 (VRE), read-out: MIC): 32 µg/mL (≈ 69.4 µM); MIC (Gram-positive bacteria; Micrococcus luteus, M. luteus, read-out: MIC): 0.0125 µg/mL (≈ 0.0271 µM); MIC (Gram-positive bacteria; Mycolicibacterium smegmatis, M. smegmatis, read-out: MIC): 16 µg/mL (≈ 34.7 µM); MIC (Gram-positive bacteria; Priestia megaterium, B. megaterium, read-out: MIC): 0.0125 µg/mL (≈ 0.0271 µM); MIC (Gram-positive bacteria; Staphylococcus epidermidis, S. epidermidis 28765, read-out: MIC): 0.05 µg/mL (≈ 0.108 µM); MIC (Gram-positive bacteria; Streptococcus pneumoniae, S. pneumoniae 20566, read-out: MIC): 0.4 µg/mL (≈ 0.868 µM)
CC1=C[C@@H](C)[C@H]2[C@@H]3C(O)=C(Cl)C(=O)[C@H](C)C(=O)O[C@@H](C)/C=C/C=C\[C@@H](C)[C@@H]3C=C[C@@H]2C1 [Chlorotonil B (ChB), Chlorotonil B, reference compound] | >3.2 |  |  |  |  |  |  | IC50 [1]: 0.0966 µM; IC50 [2]: 0.0636 µM; MIC S. aureus Newman (S. aureus Newman): 0.2 µg/mL (≈ 0.449 µM); MIC B. subtilis DSM-10 (B. subtilis DSM-10): 0.2 µg/mL (≈ 0.449 µM); MIC C. glutamicum DSM-20300 (C. glutamicum DSM-20300): 0.1 µg/mL (≈ 0.225 µM); MIC (Gram-positive bacteria; B. megaterium): 0.1 µg/mL (≈ 0.225 µM); MIC (Gram-positive bacteria; E. faecalis 20478): >3.2 µg/mL; MIC (Gram-positive bacteria; E. faecalis 29212): >3.2 µg/mL; MIC (Gram-positive bacteria; E. faecium 17050 (VRE)): >3.2 µg/mL; MIC (Gram-positive bacteria; E. faecium 20477): >3.2 µg/mL; MIC (Gram-positive bacteria; M. luteus): 0.4 µg/mL (≈ 0.899 µM); MIC (Gram-positive bacteria; M. smegmatis): 0.0125 µg/mL (≈ 0.0281 µM); MIC (Gram-positive bacteria; S. epidermidis 28765): >3.2 µg/mL; MIC (Gram-positive bacteria; S. pneumoniae 11865 (PRSP)): >16 µg/mL; MIC (Gram-positive bacteria; S. pneumoniae 20566): 1.6 µg/mL (≈ 3.6 µM)
